According to US5227466A, “Insulin receptor binding site” (City of Hope, priority 1988, dated 1993):
Where a SMILES comes first, the peptide text is derived from it.

Target: ^125 I-insulin (Homo sapiens, UniProt P01308)
Test: 125I-insulin binding to water suspension of the peptide, centrifugation
Protocol: To test for insulin binding, a water suspension of the peptide was incubated at room temperature with a tracer of ^125 I-insulin followed by simple centrifugation. […] The apparent dissociation constant was ~6×10^-7 M. Non-specific binding was negligible.

^125 I-insulin, sequence (P01308 25-54 limits assumed): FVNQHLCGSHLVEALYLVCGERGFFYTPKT
^125 I-insulin, sequence (P01308 90-110 limits assumed): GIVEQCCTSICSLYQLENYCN

- Kd (displacement of ^125 I-insulin by unlabelled insulin (FIG. 4), read-out: apparent dissociation constant): ~0.6 µM
- fraction of ^125 I-insulin tracer bound by the peptide (water suspension of the peptide, room temperature, centrifugation): up to 30%
Compound: CC[C@H](C)[C@H](NC(=O)[C@@H](NC(=O)[C@H](CC(C)C)NC(=O)[C@H](C)NC(=O)[C@H](Cc1ccc(O)cc1)NC(=O)[C@H](CC(N)=O)NC(=O)[C@H](Cc1ccccc1)NC(=O)[C@H](Cc1ccccc1)NC(=O)[C@H](CC(C)C)NC(=O)[C@@H](N)CCCNC(=N)N)C(C)C)C(=O)N[C@@H](Cc1ccccc1)C(=O)N[C@@H](CCC(=O)O)C(=O)N[C@@H](CCSC)C(=O)N[C@H](C(=O)N[C@@H](Cc1c[nH]cn1)C(=O)N[C@@H](CC(C)C)C(=O)N[C@@H](CCCCN)C(=O)N[C@@H](CCC(=O)O)C(=O)O)C(C)C [Sequence I] (H-RLFFNYALVIFEMVHLKE-OH)
